The text below walks through data of article PMC6009921, “Carbon- versus sulphur-based zinc binding groups for carbonic anhydrase inhibitors?” (Journal of Enzyme Inhibition and Medicinal Chemistry, 2018).

Read-outs that look alike come from different tables or passages of the source.

Holding throughout (assay): stopped-flow CO2 hydration
What all share (assay type): biochemical

In one test the target is T1, hCA VB (Homo sapiens, UniProt Q9Y2D0).
T1 construct: gene CA5B; recombinant, obtained in-house
T1 sequence (Q9Y2D0 34-317): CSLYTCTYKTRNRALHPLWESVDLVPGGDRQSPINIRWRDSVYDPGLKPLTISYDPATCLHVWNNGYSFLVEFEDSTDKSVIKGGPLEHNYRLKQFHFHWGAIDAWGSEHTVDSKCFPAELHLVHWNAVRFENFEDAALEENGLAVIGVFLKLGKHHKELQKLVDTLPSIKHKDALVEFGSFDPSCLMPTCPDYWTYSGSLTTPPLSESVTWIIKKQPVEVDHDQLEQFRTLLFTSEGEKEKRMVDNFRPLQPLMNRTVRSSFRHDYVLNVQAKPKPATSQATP
Particulars: read-out: KI (μM)^a^,^b / hCA VB. The source says:
stopped-flow CO2 hydration on hCA VB

In a further test the target is T2, hCA VA (Homo sapiens, UniProt P35218).
T2 construct: gene CA5A; recombinant, obtained in-house
T2 sequence (P35218 39-305): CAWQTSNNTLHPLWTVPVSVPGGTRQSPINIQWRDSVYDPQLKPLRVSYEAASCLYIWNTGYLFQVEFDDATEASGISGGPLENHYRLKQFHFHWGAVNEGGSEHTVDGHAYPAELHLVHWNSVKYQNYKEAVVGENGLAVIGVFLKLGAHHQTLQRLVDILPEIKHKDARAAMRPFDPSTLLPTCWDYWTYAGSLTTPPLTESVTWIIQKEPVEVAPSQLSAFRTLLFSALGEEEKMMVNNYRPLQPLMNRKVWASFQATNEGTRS
The following applies: read-out: KI (μM)^a^,^b / hCA VA. The source says:
stopped-flow CO2 hydration on hCA VA

The next test addresses T3, hCA XIV (Homo sapiens, UniProt Q9ULX7).
T3 construct: gene CA14; recombinant, obtained in-house
The following applies: read-out: KI (μM)^a^,^b / hCA XIV. The source says: stopped-flow CO2 hydration on hCA XIV

The target of the next test is T4, hCA VI (Homo sapiens, UniProt P23280).
T4 construct: gene CA6; recombinant, obtained in-house
T4 sequence (P23280 18-308): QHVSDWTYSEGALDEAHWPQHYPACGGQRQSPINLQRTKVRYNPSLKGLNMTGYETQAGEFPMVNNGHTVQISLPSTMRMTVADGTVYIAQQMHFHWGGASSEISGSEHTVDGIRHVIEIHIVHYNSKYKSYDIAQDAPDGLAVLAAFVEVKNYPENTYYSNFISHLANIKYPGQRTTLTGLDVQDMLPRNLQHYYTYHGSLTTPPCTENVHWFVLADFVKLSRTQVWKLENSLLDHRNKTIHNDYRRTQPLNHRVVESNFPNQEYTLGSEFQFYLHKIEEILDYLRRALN
The following applies: read-out: KI (μM)^a^,^b / hCA VI. The source says:
stopped-flow CO2 hydration on hCA VI

The target of test [1] is T5, hCA I (Homo sapiens, UniProt P00915).
T5 construct: gene CA1; recombinant, obtained in-house
T5 sequence (P00915 2-261): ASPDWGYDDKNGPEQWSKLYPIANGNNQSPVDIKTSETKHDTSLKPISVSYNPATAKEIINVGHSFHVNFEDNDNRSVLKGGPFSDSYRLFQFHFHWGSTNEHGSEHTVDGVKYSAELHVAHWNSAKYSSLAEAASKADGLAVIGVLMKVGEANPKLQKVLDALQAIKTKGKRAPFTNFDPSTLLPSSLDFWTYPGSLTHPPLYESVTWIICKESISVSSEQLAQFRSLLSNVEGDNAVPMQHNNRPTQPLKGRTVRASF

For a further test, the target named is T6, hCA IX (Homo sapiens, UniProt Q16790).
T6 construct: gene CA9; recombinant, obtained in-house
The source says: stopped-flow CO2 hydration on hCA IX

The target in the next test is T7, hCA II (Homo sapiens, UniProt P00918).
T7 construct: gene CA2; recombinant, obtained in-house

The target of the next test is T8, hCA IV (Homo sapiens, UniProt P22748).
T8 construct: gene CA4; recombinant, obtained in-house
T8 sequence (P22748 19-284): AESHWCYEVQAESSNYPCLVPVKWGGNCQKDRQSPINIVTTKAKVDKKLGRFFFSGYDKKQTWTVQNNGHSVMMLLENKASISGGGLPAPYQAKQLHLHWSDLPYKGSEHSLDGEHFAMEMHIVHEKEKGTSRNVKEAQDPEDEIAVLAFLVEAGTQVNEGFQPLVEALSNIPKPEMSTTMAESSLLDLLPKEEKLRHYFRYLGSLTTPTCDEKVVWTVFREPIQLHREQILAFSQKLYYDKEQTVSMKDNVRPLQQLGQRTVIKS
Particulars: read-out: KI (μM)^a^,^b / hCA IV. The source says: stopped-flow CO2 hydration on hCA IV

The target of another test is T9, hCA III (Homo sapiens, UniProt P07451).
T9 construct: gene CA3; recombinant, obtained in-house
T9 sequence (P07451 2-260): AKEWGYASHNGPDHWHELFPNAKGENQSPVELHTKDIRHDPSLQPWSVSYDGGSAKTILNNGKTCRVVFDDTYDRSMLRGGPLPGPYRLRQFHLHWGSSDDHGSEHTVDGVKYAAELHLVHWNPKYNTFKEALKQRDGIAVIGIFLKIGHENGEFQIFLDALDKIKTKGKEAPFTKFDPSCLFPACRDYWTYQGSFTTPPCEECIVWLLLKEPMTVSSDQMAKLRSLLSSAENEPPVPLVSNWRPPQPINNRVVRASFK
Particulars: read-out: KI (μM)^a^,^b / hCA III. The source says:
stopped-flow CO2 hydration on hCA III

A further test deals with T10, hCA VII (Homo sapiens, UniProt P43166).
T10 construct: gene CA7; recombinant, obtained in-house
T10 sequence (P43166 whole entry): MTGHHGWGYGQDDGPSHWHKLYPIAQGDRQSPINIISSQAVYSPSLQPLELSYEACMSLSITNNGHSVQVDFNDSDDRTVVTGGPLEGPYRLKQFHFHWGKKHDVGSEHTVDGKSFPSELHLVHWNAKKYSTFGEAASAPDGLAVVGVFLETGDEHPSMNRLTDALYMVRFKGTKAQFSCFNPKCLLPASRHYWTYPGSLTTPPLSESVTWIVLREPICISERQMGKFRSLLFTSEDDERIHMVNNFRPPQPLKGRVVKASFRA
Particulars: read-out: KI (μM)^a^,^b / hCA VII.

For the next test, the target named is T11, hCA XII (Homo sapiens, UniProt O43570).
T11 construct: gene CA12; recombinant, obtained in-house
T11 sequence (O43570 30-289 limits assumed): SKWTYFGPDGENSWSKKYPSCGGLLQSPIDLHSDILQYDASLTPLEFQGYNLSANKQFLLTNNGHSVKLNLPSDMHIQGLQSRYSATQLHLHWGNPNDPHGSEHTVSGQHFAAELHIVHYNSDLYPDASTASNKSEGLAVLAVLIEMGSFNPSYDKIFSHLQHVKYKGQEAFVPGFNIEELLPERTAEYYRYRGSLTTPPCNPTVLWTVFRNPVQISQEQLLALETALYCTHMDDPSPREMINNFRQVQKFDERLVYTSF

The target of a further test is T12, mCA XIII (Mus musculus, UniProt Q9D6N1).
T12 construct: gene Ca13; recombinant, obtained in-house
T12 sequence (Q9D6N1 whole entry): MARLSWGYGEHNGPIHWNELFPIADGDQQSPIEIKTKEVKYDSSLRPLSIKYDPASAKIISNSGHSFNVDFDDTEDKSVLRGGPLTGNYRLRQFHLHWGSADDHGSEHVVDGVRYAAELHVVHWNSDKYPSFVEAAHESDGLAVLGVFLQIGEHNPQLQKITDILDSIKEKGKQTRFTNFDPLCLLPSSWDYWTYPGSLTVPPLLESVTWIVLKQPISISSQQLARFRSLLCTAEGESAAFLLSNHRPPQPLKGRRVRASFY
Particulars: read-out: KI (μM)^a^,^b / mCA XIII. The source says:
stopped-flow CO2 hydration on mCA XIII

For test [2], the target named is T5, hCA I. Particulars: CO2 1.7-17 mM, 20 mM Hepes pH 7.5, 20 mM Na2SO4, 15 min preincubation, room temperature; unreliable: table and text (69.8) disagree. The source says: stopped-flow CO2 hydration on hCA I
[3] abbreviates: read-out: KI (μM)^a^,^b / hCA I.
Setting [4] is: read-out: KI (μM)^a^,^b / hCA IX^c.
Setting [5] is: read-out: KI (μM)^a^,^b / hCA II.
[6] abbreviates: read-out: KI (μM)^a^,^b / hCA XII^c.
The mark [7] stands for this setting: CO2 1.7-17 mM, 20 mM Hepes pH 7.5, 20 mM Na2SO4, 15 min preincubation, room temperature, read-out: KI (μM)^a^,^b / hCA I.

T3 sequence (Q9ULX7 16-290 limits assumed): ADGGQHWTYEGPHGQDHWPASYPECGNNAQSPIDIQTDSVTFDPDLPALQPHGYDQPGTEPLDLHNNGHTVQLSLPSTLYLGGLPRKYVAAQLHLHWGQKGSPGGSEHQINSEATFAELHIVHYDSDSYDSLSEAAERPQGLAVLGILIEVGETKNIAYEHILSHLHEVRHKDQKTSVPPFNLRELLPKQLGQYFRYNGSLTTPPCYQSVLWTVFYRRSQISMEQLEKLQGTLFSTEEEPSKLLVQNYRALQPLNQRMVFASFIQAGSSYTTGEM

Regarding `CONS(=O)(=O)c1ccccc1` [compound 5, N-methoxysulphonamide 5], the Ki on hCA VB was 10.7 µM; on hCA VA, 6.7 µM; on hCA XIV it was 1.57 µM; at hCA VI, 27 µM; on hCA I [1] (setting [3]) it was greater than 1000 µM; at hCA IX (setting [4]), 64.3 µM. The Ki on hCA II (setting [5]) was 8.96 µM; on hCA IV it was 39.5 µM; at hCA III it was 5.72 µM; on hCA VII, 9.56 µM; on hCA XII (setting [6]), 8.32 µM.

Consider `CONC(=O)c1ccccc1` [compound 10, methylated hydroxamate 10], for which the Ki on hCA VB stood at 57.3 µM; at hCA VA, 89.1 µM; at hCA XIV it was 10 µM; on hCA VI it was 89.9 µM; at hCA I [1] (setting [3]) it was 72.5 µM; on hCA IX (setting [4]) it was 57.5 µM. For the same compound, the Ki at hCA II (setting [5]) amounted to 341 µM; at hCA IV, 111 µM; at hCA III, 37.3 µM; at hCA VII, 72.2 µM; at hCA XII (setting [6]), 28.5 µM.

For the compound `NC(=O)Oc1ccccc1` [7a, carbamate 7a], the Ki at hCA I [1] (read-out: hCA I) amounted to 720 µM; on hCA IX (read-out: hCA IX), 10.1 µM; on hCA II (read-out: hCA II), 110 µM; at hCA XII (read-out: hCA XII) it was 2.81 µM.

`NNC(=O)c1ccccc1` [compound 8, hydrazide 8]: the Ki on hCA VB turned out to be 75.9 µM; on hCA VA, 59.3 µM; on hCA XIV, 0.99 µM; at hCA VI it was 63.5 µM; on hCA I [1] (setting [3]), 91.2 µM; at hCA IX (setting [4]), 48.4 µM. Besides, the Ki at hCA II (setting [5]) amounted to 231 µM; at hCA IV it was 335 µM; on hCA III, 40.2 µM; on hCA VII it was 76.7 µM; on hCA XII (setting [6]), 45 µM.

For `O=C(O)c1ccccc1` [compound 6, benzoic acid], the Ki on hCA VB came to 9.6 µM; on hCA VA, 7.12 µM; on hCA XIV it was 0.98 µM; at hCA VI it was 91.6 µM; at hCA I [1] (setting [7]), 730 µM; at hCA IX (setting [4]) it was 66.5 µM. Further, the Ki on hCA II (setting [5]) came to 30.1 µM; at hCA IV, 434 µM; on hCA III, 35.7 µM; at hCA VII, 92.2 µM; at hCA XII (setting [6]), 20.4 µM.

`O=C(NO)c1ccccc1` [compound 9, hydroxamic acid 9]: the Ki stood at 53.6 µM on hCA VB; 67.4 µM on hCA VA; 0.94 µM at hCA XIV; 78.1 µM at hCA VI; 83.1 µM on hCA I [1] (setting [7]); 45.9 µM at hCA IX (CO2 1.7-17 mM, 20 mM Hepes pH 7.5, 20 mM Na2SO4, 15 min preincubation, room temperature, read-out: KI (μM)^a^,^b / hCA IX^c). In addition, the Ki at hCA II (CO2 1.7-17 mM, 20 mM Hepes pH 7.5, 20 mM Na2SO4, 15 min preincubation, room temperature, read-out: KI (μM)^a^,^b / hCA II) is 179 µM; at hCA IV, 84.7 µM; on hCA III it was 44.8 µM; at hCA VII it was 70.7 µM.

Turning to `NC(=O)c1ccccc1` [compound 7, carboxamide 7], the Ki was found to be 83.1 µM at hCA VB; 46.8 µM at hCA VA; 27 µM at hCA XIV; 82.6 µM on hCA VI; 324 µM at hCA I [1] (setting [3]); 3.67 µM on hCA IX (setting [4]). The Ki was 93.2 µM at hCA II (setting [5]); 381 µM at hCA IV; 35.7 µM at hCA III; 76.8 µM at hCA VII; 11.2 µM at hCA XII (setting [6]).

Turning to `NS(=O)(=O)Nc1ccccc1` [2b, sulphamide 2b], at hCA IX (read-out: hCA IX), the Ki was found to be 0.071 µM.

With `NNS(=O)(=O)c1ccccc1` [compound 3, N-amino sulphonamide 3], the Ki on hCA VB came out at 95.2 µM; on hCA VA, 7.75 µM; at hCA XIV, 3.81 µM; at hCA VI, 74.4 µM; at mCA XIII, 5.96 µM; on hCA IX (setting [4]), 51.7 µM. Moreover, the Ki at hCA II (setting [5]) is 5.31 µM; on hCA IV it was 78.4 µM; at hCA III, 6.28 µM; on hCA VII, 8.56 µM; on hCA XII (setting [6]) it was 2.42 µM. Also, the “KI (μM)^a^,^b / hCA I” value on hCA I [2] was found to be 9.8 µM.

Turning to `O=S(=O)(NO)c1ccccc1` [compound 4, N-hydroxysulphonamide 4], the Ki on hCA VB is 67.9 µM; at hCA VA it was 5.28 µM; at hCA XIV it was 1.66 µM; at hCA VI it was 86.2 µM; at hCA I [1] (setting [3]), 2.73 µM; at hCA IX (setting [4]) it was 60.3 µM. The Ki is 5.47 µM on hCA II (setting [5]); 24.6 µM at hCA IV; 4.42 µM on hCA III; 8.73 µM on hCA VII; 1.53 µM at hCA XII (setting [6]).

Regarding `O=S(=O)(O)c1ccccc1` [compound 1, benzenesulphonic acid], the Ki at hCA VB is 79.8 µM; on hCA VA, 80.9 µM; at hCA XIV, 8.79 µM; at hCA VI, 8.8 µM; on hCA I [1] (setting [3]), 8.65 µM; at mCA XIII, 8.72 µM. Besides, the Ki on hCA IX (setting [4]) was 9.55 µM; at hCA II (setting [5]), 9.3 µM; at hCA IV it was 9.1 µM; at hCA III, 6.63 µM; on hCA VII, 7.93 µM; at hCA XII (setting [6]) it was 6.45 µM.

Take `NS(=O)(=O)c1ccccc1` [compound 2, benzenesulphonamide]: the Ki on hCA VB was 8.82 µM; on hCA VA it was 1.68 µM; on hCA XIV it was 0.092 µM; on hCA VI it was 0.097 µM; at mCA XIII it was 0.1 µM; on hCA IX (read-out: KI (μM)^a^,^b / hCA VI), 0.097 µM. Moreover, the Ki at hCA IV turned out to be 7.96 µM; on hCA III, 2.26 µM.
